Laboratory results taken from patent publication US6046224A, “12 (S)--hete receptor blockers” (City of Hope, priority 1998, dated 2000).
“And” between values parts separate entries of the source, which are not always exact repeats. Identical values can stand only once. “Also recorded” adds a separate entry of the source. Counter-ions that a name gives are not always drawn. Like-named read-outs stand apart in the source and are kept apart here. Values belong to the compound of their own block, whether it stands above or below them.

Tests used:
CHO-AT1a cells [1] = conditions: cited from earlier work; for inhibition of 12(S)-HETE-induced mitogenic effects (pertussis toxin): pretreatment of cells
[2] = test system: c-jun amino terminal kinase (JNK); conditions: cited from earlier work
[3] = test system: 12(S)-HETE receptor (CHO-AT1a cells); assay: [3H]12(S)-HETE binding to CHO-AT1a cells; parameters: species or system Chinese hamster; conditions: for blockade/displacement of [3H]12(S)-HETE binding: CHO-AT1a cells, 4° C.
Method: Kinetics of [^3 H]12(S)-HETE binding to CHO-AT1a cells. FIGS. 1 and 2 are a competition curves which examine the specificity of [^3 H]12(S)-HETE binding. CHO-AT1a cells were grown to confluence in 24 well tissue culture dishes in HAM's F12 medium containing 10% fetal calf serum. The cells were then rinsed and placed in fresh medium, HAM's F12/HEPES with no other additives (450 µl per well). Serial dilutions of unlabeled 12(S)-HETE or DuP654 were added to the wells. Commercial unlabeled 12(S)-HETE (BioMol Corp.) was dried and reconstituted in ethanol to obtain a stock solution of 5 mM. DuP654 was dissolved in DMSO to get a stock solution of 5 mM. These were then serially diluted and added in a volume of 1 u1 to the wells to obtain the final concentrations indicated. Then [^3 H]12(S)-HETE (10,000 cpm in a volume of 50 µl per well) was added from a stock solution obtained by adding the tracer to the medium. The plates were then incubated at 4° C. with continuous shaking for 2 hr. The cells were then washed 2 times with cold PBS and lysed in 0.3N NaOH (200 u1). Radioactivity in the cell lysates was quantitated in scintillation counter. Affinities and binding constants were obtained using […] computer software (Mlab, Civilized Software Inc., Bethesda, Md.).
Tritrated 12(S)-HETE binding is blocked by unlabeled 12(S)-HETE. DuP654, a 12(S)-HETE receptor antagonist, was shown also to block 12(S)-HETE at a concentration of 0.1 μM in both AT1a Σ and AT1a 27 cell types, two clones of CHO cells which overexpress the AII1a receptor. The cells were grown as described in Example 1.
Blockade of 12(S)-HETE binding by pertussis toxin. Cells were grown as described in Example 1. Prior to addition of drug (12(S)-HETE or DuP654) to the cells, the cultures were preincubated in HAM's F12 medium +0.1% BSA for two hours at 37° C. with or without 100 ng/ml pertussis toxin. Serial dilutions of unlabeled 12(S)-HETE or DuP654 were added, followed by [^3 H]12(S)-HETE as described for Example 1. After incubation and washing, radioactivity in the cell lysates was quantitated. As discussed above, pertussis toxin could also ablate 12(S)-HETE-induced mitogenic effects. This implicates the involvement of a Gi -protein-coupled receptor.

CHO-AT1a cells [4] = assay: Growth/mitogenesis of CHO-AT1a cells; format: cell-based, Chinese hamster
Method: Partial blockade of 12(S)-HETE mitogensis by the specific angiotensin AT1a receptor antagonist, Losartan, in CHO-AT1a cells. (FIG. 5) CHO-AT1a cells were plated in 12-well dishes (about 5-10,000 cells per well) for 24 hr. in growth medium consisting of HAM's, F12+10% FCS. They were then serum depleted for 72 hours by replacing the medium with HAM's F12+0.1% BSA. This medium was then freshly replaced along with AII or 12-HETE (0.1 μM each) prior to addition of drug to the cells. Losartan was added as a solution in water to the cells 15 min. prior to the addition of AII or 12-HETE. Fresh medium containing the same concentrations of AII or 12(S)-HETE plus Losartan was replaced every 48 hours. At the end of 8 days, the medium was removed, and 1 ml trypsin was added per well followed by 1 ml isoton after 3 min. These trypsinized cells were counted on a Coulter counter. […] 12-HETE binding (FIG. 4).
The three cell lines, CHO-AT1a, CHO-AT1b and mock transfected CHO cells were gifts from Dr. Eric Clauser (Inserm Unit, Paris, France). These cells were plated in 12 well dishes in HAM's F12 medium +10% FCS. After 72 hours serum depletion in HAM's F12+0.05% FCS, the cells were treated with AII or 12(S)-HETE (0.1 μM). Cells counts (after trypsinization) were taken at 48 hour intervals and fresh medium along with AII or 12-HETE added at these 48 hour intervals.

[5] = test system: 12(S)-HETE receptors on the human epidermal cell line SCL-II; conditions: Arenberger et al. 1993; cited from earlier work
[6] = test system: Human Aortic Endothelial Cells; assay: Monocyte binding to human aortic endothelial cells, endothelial cells treated; format: cell-based
Source text: Lipoxygenases (LO) are metabolic enzymes which catalyze the stereospecific oxygenation of polyunsaturated fatty acids to hydroperoxy fatty acids (Hamberg et al., J. Biol. Chem. 242:5329-5335 (1967)). The physiological function of 12-LO, the mammalian enzyme which catalyzes the oxygenation of arachidonic acid to (S)-12-hydroperoxyeicosatetraenoic acid (12-HPETE) and (S)-12-hydroxyeicosatetraenoic acid (12(S)-HETE), is unclear. 12-LO exists as two isoforms which are the products of different genes, leukocyte-type 12-LO and platelet-type 12-LO, which share 65% homology at the amino acid level (Izumi et al., Proc. Natl. Acad. Sci., USA 87:7477-7481 (1990); Funk et al., Proc. Natl. Acad. Sci. USA 87:5638-5642 (1990)). […] 12(S)-HETE has direct mitogenic and hypertrophic effects in vascular cells. […] In addition, glucose-induced monocyte adhesion was abrogated by the inhibition of 12-LO using both phenidone, a non-specific LO inhibitor, and baicalein, a more specific 12-LO inhibitor. The adhesion caused by 12-LO products appears to be monocyte-specific.

CHO-AT1a cells [7] = conditions: cited from earlier work
12-LO [8] = conditions: Scheidegger et al. 1997; cited from earlier work
PAK [9] = conditions: cited from earlier work
12-LO [10] = conditions: cited from earlier work
[11] = test system: Human Aortic Endothelial Cells; assay: Monocyte adhesion to human aortic endothelial cells, monocytes treated with 12(S)-HETE; format: cell-based; conditions: monocytes with 10^-9 M 12(S)-HETE, 12 minutes
Method: Neutrophil binding is not increased. […] See Example 10.
Monocytes were incubated with 10^-9 M 12(S)-HETE for 12 minutes at room temperature (RT) or 37° C. or left untreated at room temperature and assayed for monocytes adhesion. Eight fields were counted for each experiment.

[12] = test system: AII-induced proliferation; conditions: cited from earlier work
PAK [13] = assay: PAK activity in CHO-AT1a cells; format: cell-based, Chinese hamster; conditions: 10^-7 M 12(S)-HETE, 10 minutes
Method: CHO-AT1a cells were gently washed and placed in depletion medium (HAM's F-12 medium containing 1 mg.backslash.ml BSA and 20 mM HEPES, ph 7.4) for 72 hours prior to use. After incubation for 30 minutes, the cells were treated with 10^-7 M 12(S)-HETE or with ethanol. The 12(S)-HETE treatment was terminated by washing twice with PBS and adding 300 μl lysis buffer (50 mM HEPES. pH 7.5, containing 150 mM NaCl, 5 mM MgCl2, 1 mM EGTA, 50 mM NaF, 10 mM sodium pyrophosphate, 1% NP-40, 2.5% glycerol and 1 mM Na3 VO4 containing the protease inhibitors phenylmethylsulfonyl fluoride, leupeptin, and aprotonin) followed by sedimentation at 14,000× g at 4° C. for ten minutes. Protein determination was performed by the Bradford method. […] PAK activity was measured as follows. […] ATP, the kinase activity was measured in 60 μl kinase buffer. […] Results are expressed as stimulation over control.
For the PBD-transfected group, CHO-AT1a cells were transiently transfected with 15 μg PBD plasmid. […] The bottom panel illustrates the densitometric quantification. […] Results are expressed as stimulation over control. The PAK activity was measured as described in Example 7.
Cells were pretreated with different concentrations of the PI-3 kinase inhibitor, LY294002 or DMSO (control) for 30 minutes, then treated with 10^-7 M 12(S)-HETE or ethanol (control) for 10 minutes. PAK activity was measured as described in Example 7.

[14] = HAEC incubated four hours with 12(S)-HETE, 240 min

Compound: pertussis toxin
inhibition of 12(S)-HETE-induced mitogenic effects (pertussis toxin) (CHO-AT1a cells [1]): completely abrogated; also recorded: ablate | inhibition of 12(S)-HETE-induced mitogenic effects (pertussis toxin) (CHO-AT1a cells [1]; listed as Pertussis toxin): ablate | blockade of JNK activation by 12(S)-HETE ([2]; 12(S)-HETE-induced): block | blockade/displacement of [3H]12(S)-HETE binding [3]: Blockade | blockade/displacement of [3H]12(S)-HETE binding ([3]; listed as Pertussis toxin): blocked

Compound: Oc1c(Cc2ccccc2)ccc2ccccc12 [DuP654, 2-phenylmethyl-1-naphthol]
reduction of 12(S)-HETE-induced cell growth at 0.1 μM (CHO-AT1a cells [4]; 12(S)-HETE-induced, 0.1 μM): significantly reduced | inhibition of 12(S)-HETE-induced mitogenic effects (CHO-AT1a cells [4]; 12(S)-HETE-induced, CHO-AT1a cells): completely inhibit; also recorded: Complete inhibition | reduction of AII-induced cell growth at 0.1 μM (CHO-AT1a cells [4]; AII-induced, 0.1 μM): significantly reduced | inhibition of 12(S)-HETE binding to SCL-II cells [5]: specifically inhibit | blockade of 12(S)-HETE binding at 0.1 μM ([3]; 0.1 μM, AT1a Σ and AT1a 27 clones): block

Compound: O=C1CCN(c2ccccc2)N1 [phenidone]
inhibition of glucose-induced monocyte adhesion [6]: abrogated

Compound: AII: growth factor and potent vasoconstrictor AII (DRVYIHPF; Angiotensin-2; UniProt P01019 25-32, looked up)
increase in cell proliferation (CHO-AT1a cells [1]; CHO-AT1a cells, 0.1 µM): 2 fold | increase in 12(S)-HETE formation (CHO-AT1a cells [7]): 2 fold

Compound: CCCCc1nc(Cl)c(CO)n1Cc1ccc(-c2ccccc2-c2nn[nH]n2)cc1 [Losartan, 2-N-butyl-4-chloro-5-hydroxymethyl-1-[(2'-(1H-tetrazol-5-yl)biphenyl-4-yl)methyl]imidazole, potassium salt]
inhibition of 12(S)-HETE-induced mitogenic effects (CHO-AT1a cells [4]; 12(S)-HETE-induced, CHO-AT1a cells, potassium salt): partially blocked | inhibition of AII-induced proliferative effects (CHO-AT1a cells [4]; AII-induced, CHO-AT1a cells, potassium salt): fully inhibiting; also recorded: fully blocked | blockade/displacement of [3H]12(S)-HETE binding ([3]; potassium salt): partially blocked

Compound: AII: growth factor and potent vasoconstrictor AII
stimulation of 12-LO activity in murine macrophages (12-LO [8]): stimulate | mitogenic effects in CHO-AT1a cells (CHO-AT1a cells [1]; Wen et al. 1996): sustained increase in DNA synthesis as well as cell number | PAK activation by AII (PAK [9]): activate | stimulation of 12-LO activity in smooth muscle cells (12-LO [10]): stimulate | JNK activation ([2]; Wen et al. 1997): activate

average increase in monocyte binding as compared to untreated cells [6, 14]: 3 fold | range of increase in monocyte binding as compared to untreated cells [6, 14]: 1.5-5 fold
Compound: CCCCC/C=C\C[C@H](O)/C=C/C=C\C/C=C\CCCC(=O)O [12(S)-HETE, (S)-12-hydroxyeicosatetraenoic acid]
Monocyte Adhesion to Human Aortic Endothelial Cells, 12(S)-HETE (37° C.) ([11]; 37° C., P = 0.01): 39.0 ± 9.3 | Monocyte Adhesion to Human Aortic Endothelial Cells, 12(S)-HETE (RT) ([11]; RT, exp. 1 P = 0.016, exp. 2 P = 0.001): 39.6 ± 12.5 and 45.4 ± 7.6

Compound: O=c1cc(-c2ccccc2)oc2cc(O)c(O)c(O)c12 [baicalein]
inhibition of AII proliferative effects (CHO-AT1a cells [1]; AII-induced, CHO-AT1a cells): inhibited | inhibition of proliferative effects of AII [12]: inhibited | inhibition of glucose-induced monocyte adhesion [6]: abrogated

Compound: O=c1cc(N2CCOCC2)oc2c(-c3ccccc3)cccc12 [LY294002]
inhibition of 12(S)-HETE-induced PAK activation (PAK [13]): inhibition
